Tests used:
[1] = tested on: Rat; assay: concentration in plasma after dosing; conditions: dosed: Free Carbon disulfide, 50 mg/kg, iv, Male, F344
[2] = tested on: Rat; assay: concentration in plasma after dosing; conditions: dosed: Free Carbon disulfide, 50 mg/kg, iv, Male, F344; remark: listed apart in the source
[3] = tested on: Rat; assay: concentration in plasma after dosing; conditions: dosed: Free Carbon disulfide, 10 mg/kg, iv, Male, F344
[4] = tested on: Rat; assay: concentration in plasma after dosing; conditions: dosed: Free Carbon disulfide, iv, Male, F344
[5] = tested on: Rat; assay: concentration in plasma after dosing; conditions: dosed: Free Carbon disulfide, 10 mg/kg, iv, Male, F344; remark: listed apart in the source
[6] = tested on: Rat; assay: concentration in urine after dosing; conditions: dosed: dibromoacetic acid, 100 mg/kg, oral, Male, F344
[7] = tested on: Rat; assay: concentration in urine after dosing; conditions: dosed: dibromoacetic acid, oral, Male, F344
[8] = tested on: Rat; assay: concentration in urine after dosing; conditions: dosed: dibromoacetic acid, 40 mg/kg, oral, Male, F344
[9] = tested on: Rat; assay: concentration in urine after dosing; conditions: dosed: dibromoacetic acid, 100 mg/kg, oral, Male, F344; remark: listed apart in the source
[10] = tested on: Rat; assay: concentration in urine after dosing; conditions: dosed: dibromoacetic acid, 40 mg/kg, oral, Male, F344; remark: listed apart in the source

S=C=S [Free Carbon disulfide]
concentration in plasma [µg/g]
Conditions | 0.05 h | 1 h | 5 min | 10 min | 20 min | 40 min
[1] | 20.2 | 2 | 15.9 | 9.5 | 5.6 | 2.6
[2] | 21.2 | 1.2 | 11 | 6.6 | 4.9 | 1.8
[3] | 5.8 | – | 7.9 | 1.4 | – | –
[5] | 4.2 | – | 2.5 | 1.4 | 0.7 | –

concentration in plasma [µg/g], [4]
Conditions | 0.05 h | 1 h | 2 h | 5 min | 10 min | 20 min | 40 min
10 mg/kg | 5 | – | – | 1.9 | 1.2 | 0.8 | –
50 mg/kg | 13.1 | 1.6 | 0.9 | 8.3 | 6.4 | 6.8 | 4.2

O=CC(=O)O [Glyoxylic acid]
concentration in urine [ng/mL]
Conditions | 0 h | 2 h | 4 h | 8 h | 24 h | 48 h
[6] | 16100 | – | 25000 | – | 30900 | 34300
[8] | 18400 | 11900 | – | – | 35600 | 37900
[9] | 27400 | 20700 | 28600 | 31200 | 28800 | 47900
[10] | 22300 | – | – | 20700 | 36100 | 34300

concentration in urine [ng/mL], [7]
Conditions | 0 h | 4 h | 8 h | 24 h | 48 h
40 mg/kg | 29800 | 13200 | 27000 | 31800 | 26300
100 mg/kg | 20500 | 25600 | – | 30400 | 54800

From EPA's CvTdb concentration-time database
